The assay deals with T1, MpBgl3.
T1 construct: native secreted enzyme purified from culture filtrate (cellobiose-grown), N-glycosylated
Nature of the assay: p-nitrophenol release, absorbance at […] nm; SigrafW fit. Format: biochemical, Malbranchea pulchella. Conditions: McIlvaine buffer pH 6.0, 50 °C.

By Km is commonly meant the substrate concentration at which the rate is half of its maximum.

In the case of `O=[N+]([O-])c1ccc(O[C@@H]2O[C@H](CO)[C@@H](O)[C@H](O)[C@H]2O)cc1` [pNPG], the Michaelis constant (Km) was 330 µM.

(Values after paper PMC7181827, “A Highly Glucose Tolerant ß-Glucosidase from Malbranchea pulchella (MpBg3) Enables Cellulose Saccharification” (Scientific Reports, 2020).)
